Our source for the EC50 and IC50 values is patent publication US20260242391A1 (priority 2023, published 2026).

Structures are written as SMILES.

As usually defined, the EC50 is the concentration giving half of the maximal effect. A lower EC50 goes with a more potent agent. A word on the IC50: it is the concentration needed to halve the response being measured. Low readings indicate inhibition by little substance, high ones a need for much substance.

The subject of data set [1] is HL-60. Kind of data set: HL-60 differentiation potency. Format: cell-based. Particulars: Homo sapiens.
A short description of data set [2]: in vitro. As to conditions: human.
The subject of data set [3] is HL-60. Kind of data set: HL-60 differentiation potency. Format: cell-based. Particulars: Homo sapiens. The source holds these as a separate data set.
The nature of data set [4]: in vitro. As to conditions: human. This is another data set of the same source.

`C[C@H]1[C@@H](O[C@H]2CC[C@@H](OCC(=O)O)CC2)O[C@@H]2O[C@@]3(C)CC[C@H]4[C@H](C)CC[C@@H]1[C@@]24OO3` [Compound 224, 2-(((1R,4s)-4-(((3R,5aS,6R,8aS, 9R,10S,12R, 12aR)-3,6,9-trimethyldeca-hydro-12H-3,12-epoxy[1,2]dioxepino[4,3-i]isochromen-10-yl)oxy)cyclohexyl)oxy)acetic acid] gave an EC50 in data set [1] of 8040 nM. The IC50 in data set [2] is above 20000 nM.

In the case of `C[C@H]1[C@@H](Oc2ccc([C@@H](C)C(=O)O)cc2F)O[C@@H]2O[C@@]3(C)CC[C@H]4[C@H](C)CC[C@@H]1[C@@]24OO3` [Compound 279, (R)-2-(3-fluoro-4-(((3R,5aS,6R,8aS, 9R,10S,12R, 12aR)-3,6,9-trimethyldeca-hydro-12H-3,12-epoxy[1,2]dioxepino[4,3-i]isochromen-10-yl)oxy)phenyl) propanoic acid], the midpoint of the response in data set [1], the EC50, lay at 26.8 nM. The compound further displayed a half-inhibitory concentration (IC50) in data set [2] of 4860 nM. As to `Cc1cc(C(=O)O)cc(Cl)c1CO[C@H]1O[C@@H]2O[C@@]3(C)CC[C@H]4[C@H](C)CC[C@@H]([C@H]1C)[C@@]24OO3` [Compound 280, 3-chloro-5-methyl-4-((((3R,5aS,6R,8aS, 9R,10S,12R, 12aR)-3,6,9-trimethyldeca-hydro-12H-3,12-epoxy[1,2]dioxepino[4,3-i]isochromen-10-yl)oxy)methyl) benzoic acid], in data set [1], the EC50 worked out at 246 nM. This compound yielded an IC50 in data set [2] of 3220 nM. Regarding `C[C@H]1[C@@H](OCC(=O)Nc2ccc(C(=O)O)cc2)O[C@@H]2O[C@@]3(C)CC[C@H]4[C@H](C)CC[C@@H]1[C@@]24OO3` [Compound 213, 4-(2-(((3R,5aS,6R,8aS, 9R,10S,12R, 12aR)-3,6,9-trimethyldeca-hydro-12H-3,12-epoxy[1,2]dioxepino[4,3-i]isochromen-10-yl)oxy)actamido) benzoic acid], the concentration for a half-maximal effect (EC50) in data set [1] stood at 325 nM. This compound yielded an IC50 in data set [2] above 20000 nM.

Compound `C[C@H]1[C@@H](Oc2ccc3[nH]c(C(=O)O)cc3c2)O[C@@H]2O[C@@]3(C)CC[C@H]4[C@H](C)CC[C@@H]1[C@@]24OO3` [Compound 208, 5-(((3R,5aS,6R,8aS, 9R,10S,12R, 12aR)-3,6,9-trimethyldeca-hydro-12H-3,12-epoxy[1,2]dioxepino[4,3-i]isochromen-10-yl)oxy)-1H-indole-2-carboxylic acid] came in with an EC50 in data set [1] of 69.3 nM. Besides, the half-maximal inhibitory concentration (IC50) in data set [2] turned out to be 370 nM. On to `C[C@H]1[C@@H](Oc2ccc(C(=O)N[C@H]3C[C@@H](C(=O)O)C3)cc2)O[C@@H]2O[C@@]3(C)CC[C@H]4[C@H](C)CC[C@@H]1[C@@]24OO3` [Compound 233, (1R,3s)-3-(4-(((3R,5aS,6R,8aS, 9R,10S,12R, 12aR)-3,6,9-trimethyldeca-hydro-12H-3,12-epoxy[1,2]dioxepino[4,3-i]isochromen-10-yl)oxy)benzamido) cyclobutane-1-carboxylic acid], for which the response in data set [1] was half-maximal at 93.6 nM (EC50). For `C[C@H]1[C@@H](O[C@H]2CC[C@@H](C(=O)N[C@H]3CC[C@@H](C(=O)O)C3)CC2)O[C@@H]2O[C@@]3(C)CC[C@H]4[C@H](C)CC[C@@H]1[C@@]24OO3` [Compound 202, (1R,3S)-3-((1R,4R)-4-(((3R,5aS,6R,8aS, 9R,10S,12R, 12aR)-3,6,9-trimethyldeca-hydro-12H-3,12-epoxy[1,2]dioxepino[4,3-i]isochromen-10-yl)oxy)cyclo-hexane-1-carboxamido) cyclopentane-carboxylic acid], it took 4010 nM to reach a half-maximal effect in data set [1] (EC50). This EC50 lies about 43-fold higher than the previous one. Regarding `C[C@H]1[C@@H](OC(C)(C)[C@H]2CC[C@@H](C(=O)O)CC2)O[C@@H]2O[C@@]3(C)CC[C@H]4[C@H](C)CC[C@@H]1[C@@]24OO3` [Compound 131, (1R,4s)-4-(2-(((3R,5aS,6R,8aS, 9R,10S,12R, 12aR)-3,6,9-trimethyldeca-hydro-12H-3,12-epoxy[1,2]dioxepino[4,3-i]isochromen-10-yl)oxy)propan-2-yl)cyclohexane-1-carboxylic acid], the midpoint of the response in data set [3], the EC50, lay at 159 nM. This compound displayed an IC50 in data set [4] of 16500 nM. Consider `C[C@H]1[C@@H](Oc2ccc(C(=O)O)c(F)c2)O[C@H]2O[C@@]3(C)CC[C@H]4[C@H](C)CC[C@@H]1[C@@]24OO3` [Compound 25, 2-fluoro-4-(((3R,5aS,6R,8aS, 9R,10S,12S, 12aR)-3,6,9-trimethyldeca-hydro-12H-3,12-epoxy[1,2]dioxepino[4,3-i]isochromen-10-yl)oxy)benzoic acid], for which the EC50 in data set [3] is 217 nM. The IC50 in data set [4] was above 20000 nM. The compound `C[C@H]1[C@@H](OC[C@H]2CC[C@@H](CO)CC2)O[C@@H]2O[C@@]3(C)CC[C@H]4[C@H](C)CC[C@@H]1[C@@]24OO3` [Compound 156, ((1R,4s)-4-((((3R,5aS,6R, 8aS,9R,10S,12R, 12aR)-3,6,9-trimethyldeca-hydro-12H-3,12-epoxy[1,2]dioxepino[4,3-i]isochromen-10-yl)oxy)methyl)cyclohexyl) methanol] showed an EC50 in data set [3] of 76.6 nM. The same compound had an IC50 in data set [4] of 270 nM. Take `C[C@H]1[C@H](OCC2CCC(F)(F)CC2)O[C@@H]2O[C@@]3(C)CC[C@H]4[C@H](C)CC[C@@H]1[C@@]24OO3` [Compound 105, (3R,5aS,6R,8aS, 9R,10R,12R, 12aR)-10-((4,4-difluorocyclo-hexyl)methoxy)-3,6,9-trimethyldeca-hydro-12H-3,12-epoxy[1,2] dioxepino[4,3-i] isochromene]: in data set [3], a half-maximal response (EC50) required 48.4 nM. For the same compound, the midpoint of inhibition in data set [4], the IC50, lay at 200 nM. In the case of `C[C@H]1[C@@H](CCN2CC(C(=O)O)C2)O[C@@H]2O[C@@]3(C)CC[C@H]4[C@H](C)CC[C@@H]1[C@@]24OO3` [Compound 68, 1-(2-((3R,5aS,6R,8aS, 9R,10R,12R, 12aR)-3,6,9-trimethyldeca-hydro-12H-3,12-epoxy[1,2]dioxepino[4,3-i]isochromen-10-yl)ethyl) azetidine-3-carboxylic acid], in data set [3], the EC50 was above 20000 nM. The same compound showed an IC50 in data set [4] above 20000 nM. `C[C@H]1[C@@H](OC[C@H]2CC[C@H](C(=O)O)CC2)O[C@@H]2O[C@@]3(C)CC[C@H]4[C@H](C)CC[C@@H]1[C@@]24OO3` [Compound 43, (1S,4r)-4-((((3R,5aS,6R, 8aS,9R,10S,12R, 12aR)-3,6,9-trimethyldeca-hydro-12H-3,12-epoxy[1,2]dioxepino[4,3-i]isochromen-10-yl)oxy)methyl) cyclohexane-1-carboxylic acid] yielded an EC50 in data set [3] of 892 nM. The same compound registered an IC50 in data set [4] above 20000 nM. Taken in the same sequence, the figures for `CCN(CC)Cc1ccc(C(C)O[C@@H]2O[C@@H]3O[C@@]4(C)CC[C@H]5[C@H](C)CC[C@@H]([C@H]2C)[C@@]35OO4)cc1O` (stereo partly drawn) [Compound 47, 2-((diethylamino)methyl)-5-(1-(((3R,5aS,6R,8aS, 9R,10R,12R, 12aR)-3,6,9-trimethyldeca-hydro-12H-3,12-epoxy[1,2]dioxepino[4,3-i]isochromen-10-yl)oxy)ethyl) phenol] were 1710 nM and 4050 nM. Consider `C[C@H]1[C@@H](Oc2ccc(O[C@H]3C[C@@H](C(=O)O)C3)cc2)O[C@@H]2O[C@@]3(C)CC[C@H]4[C@H](C)CC[C@@H]1[C@@]24OO3` [Compound 182, (1R,3s)-3-(4-(((3R,5aS,6R,8aS, 9R,10S,12R, 12aR)-3,6,9-trimethyldeca-hydro-12H-3,12-epoxy[1,2]dioxepino[4,3-i]isochromen-10-yl)oxy)phenoxy) cyclobutane-1-carboxylic acid], for which the EC50 in data set [3] is 24.1 nM. In data set [4] (HL-60 cells), the IC50 is 1000 nM. In the case of `C[C@H]1[C@@H](Oc2ccc(C(=O)N[C@H]3CC[C@@H](C(=O)O)C3)cc2)O[C@@H]2O[C@@]3(C)CC[C@H]4[C@H](C)CC[C@@H]1[C@@]24OO3` [Compound 134, (1R,3S)-3-(4-(((3R,5aS,6R,8aS, 9R,10S,12R, 12aR)-3,6,9-trimethyldeca-hydro-12H-3,12-epoxy[1,2]dioxepino[4,3-i]isochromen-10-yl)oxy)benzamido)cyclo-pentane-1-carboxylic acid], in data set [3], the EC50 amounted to 24.4 nM. The compound also had an IC50 in data set [4] of 8000 nM. As for `CNC(=O)CCN[C@@H]1O[C@@H]2O[C@@]3(C)CC[C@H]4[C@H](C)CC[C@@H]([C@H]1C)[C@@]24OO3` [Compound 95, N-methyl-3-(((3R,5aS,6R,8aS, 9R,10R,12R, 12aR)-3,6,9-trimethyldeca-hydro-12H-3,12-epoxy[1,2]dioxepino[4,3-i]isochromen-10-yl)amino) propanamide], a half-maximal effect in data set [3] (EC50) was put at 348 nM. This compound yielded a concentration for half-maximal inhibition (IC50) in data set [4] of 352 nM. For the compound `C[C@H]1[C@@H](OCc2ccc(C(=O)O)c(C(F)(F)F)c2)O[C@@H]2O[C@@]3(C)CC[C@H]4[C@H](C)CC[C@@H]1[C@@]24OO3` [Compound 155, 2-(trifluoromethyl)-4-((((3R,5aS,6R, 8aS,9R,10S,12R, 12aR)-3,6,9-trimethyldeca-hydro-12H-3,12-epoxy[1,2]dioxepino[4,3-i]isochromen-10-yl)oxy)methyl) benzoic acid], the half-maximal effective concentration (EC50) in data set [3] was found to be 175 nM. The same compound had a concentration for half-maximal inhibition (IC50) in data set [4] above 20000 nM. `C[C@H]1[C@@H](OCc2ccc(C(=O)O)nc2)O[C@@H]2O[C@@]3(C)CC[C@H]4[C@H](C)CC[C@@H]1[C@@]24OO3` [Compound 13, 5-((((3R,5aS,6R, 8aS,9R,10S,12R, 12aR)-3,6,9-trimethyldeca-hydro-12H-3,12-epoxy[1,2]dioxepino[4,3-i]isochromen-10-yl)oxy)methyl) picolinic acid]: in data set [3], the EC50 turned out to be 88.9 nM. The compound also displayed an IC50 in data set [4] of 1420 nM.

The compound `C[C@H]1[C@@H](OCC(=O)N2CCC(C(=O)O)CC2)O[C@@H]2O[C@@]3(C)CC[C@H]4[C@H](C)CC[C@@H]1[C@@]24OO3` [Compound 148, 1-(2-(((3R,5aS,6R,8aS, 9R,10S,12R, 12aR)-3,6,9-trimethyldeca-hydro-12H-3,12-epoxy[1,2]dioxepino[4,3-i]isochromen-10-yl)oxy)acetyl) piperidine-4-carboxylic acid] returned a half-maximal effective concentration (EC50) in data set [3] of 6870 nM. The compound further came in with an IC50 in data set [4] above 20000 nM. `C[C@H]1[C@@H](Oc2ccc(CC(=O)O)cc2F)O[C@@H]2O[C@@]3(C)CC[C@H]4[C@H](C)CC[C@@H]1[C@@]24OO3` [Compound 9, 2-(3-fluoro-4-(((3R,5aS,6R, 8aS,9R,10S,12R, 12aR)-3,6,9-trimethyldeca-hydro-12H-3,12-epoxy[1,2]dioxepino[4,3-i]isochromen-10-yl)oxy)phenyl) acetic acid]: in data set [3], it took 59.3 nM to reach a half-maximal effect (EC50). This compound also returned a concentration for half-maximal inhibition (IC50) in data set [4] above 20000 nM.
